From US20250091994A1, “RAS/RAF BINDING INHIBITOR COMPOUND” (NATIONAL UNIVERSITY CORPORATION KOBE UNIVERSITY, priority 2021, published 2025) come the findings set out here.

The assay deals with GTPγS-bound human HRasG12V / human c-Raf-1 Ras binding domain (RBD) (Homo sapiens (Human), UniProt P01112, G12V). The experiment in a line: Ras-Raf binding inhibition ELISA. Conditions: anti-HRas antibody C-20; read-out: ELISA IC50 (μM): 1st Ab_C-20. In outline: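 GST-c-Raf-1 RBD (aa 50-131) immobilized on glutathione plates, then GTPγS-loaded full-length HRasG12V added with compound (final 10% DMSO), 1 h at 30 °C, pH 7.4 Tris buffer. Bound Ras detected by anti-HRas antibody (C-20 or 259) and HRP secondary, TMB read at OD450; IC50 from inhibition.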
GTPγS-bound human HRasG12V / human c-Raf-1 Ras binding domain (RBD), sequence (P01112 whole entry G12V, the tested form may be a part): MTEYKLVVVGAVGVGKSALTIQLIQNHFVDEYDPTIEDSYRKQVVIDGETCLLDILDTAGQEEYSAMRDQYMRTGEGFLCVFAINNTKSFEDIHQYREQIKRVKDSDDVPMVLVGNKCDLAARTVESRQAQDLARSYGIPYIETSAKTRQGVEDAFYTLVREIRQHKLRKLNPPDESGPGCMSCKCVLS

Broadly, the IC50 is the point on the concentration scale where inhibition reaches its midpoint. Take `CC(=O)N1/C(=C\c2nc3cc(C(=O)N4CCOCC4)ccc3s2)C(=O)c2ccccc21` [Example 47, (Z)-1-acetyl-2-((5-(morpholine-4-carbonyl)benzo [d]thiazol-2-yl)-methylene)-indolin-3-one]: the concentration for half-maximal inhibition (IC50) was 3.9 µM.
